Laboratory results reported in US8791258B2, “Pro-fluorescent probes” (The Regents of the University of California, priority 2008, dated 2014).

How the values were obtained:
[1] = tested on: HeLa cells; details: cited from earlier work
[2] = tested on: HeLa cells; assay type: cell-based
Protocol: 100 μM H2O2 was then added to one of the petri dishes. At 20 minutes, 50 nM MitoTracker Deep Red, 500 nM Lysotracker Red, and 1 μM Hoechst 33342 were added to both dishes. After an additional 20 minutes (40 minute stimulation total), the two coverslips were put in a single, new petri dish filled with fresh DPBS and confocal images were taken (3.2 μsec pixel time, 100% laser power for 514 line, 4.1% laser power for the 633 line, 26% laser power for the 543 line, scanned using 12-bit multi-track scan mode using a constant receiver gain). Shown above are signals from MitoPY1 (a), MitoTracker Deep Red (b), LysoTracker Red (c), an overlay of MitoTracker Deep Red and MitoPY1 (d), Hoechst (e), and a brightfield image (f) of cells not treated with H2O2, as well as signals from MitoPY1 (g), MitoTracker Deep Red (h), LysoTracker Red (i), an overlay of MitoTracker Deep Red and MitoPY1 (j), Hoechst (k), and a brightfield image (l) of cells treated with H2O2. A 20 μm scale bar shown for all images.
HeLa cells incubated with 5 μM MitoPY1 for 60 min at 37° C. and imaged with MitoPY1 (a), MitoTracker Red and Hoechst (overlay, b), and MitoPY1 with MitoTracker Red (overlay, c). HeLa cells incubated with 5 μM MitoPY1 for 60 min at 37° C. with 100 μM H2O2 added for the final 40 min and imaged with MitoPY1 (d), MitoTracker Red and Hoechst (overlay, e), MitoPY1 and MitoTracker Red (overlay, f), and brightfield (g) with 20 μm scale bar. HeLa cells incubated with 5 μM MitoPY1 for 60 min at 37° C. and imaged with MitoPY1 (h), MitoTracker Red and Hoechst (overlay, i), and MitoPY1 with MitoTracker Red (overlay, j). HeLa cells incubated for 24 h with 1 mM paraquat, then washed and incubated with 5 μM MitoPY1 for 60 min at 37° C. and imaged with MitoPY1 (k), MitoTracker Red and Hoechst (overlay, l), MitoPY1 and MitoTracker Red (overlay, m), and brightfield (n) with 20 μm scale bar.
HEK293 cells were cultured in DMEM (Invitrogen) supplemented with 10% fetal bovine serum (FBS, Hyclone) and glutamine (2 mM). CHO.K1 cells were cultured in DMEM with F-12 supplements, glutamax (Invitrogen), and 5% FBS. Cos-7 cells were cultured in DMEM with high glucose, glutamax, 10% FBS, and non-essential amino acids (Invitrogen). HeLa cells were cultured in DMEM with high glucose, glutamax, and 10% FBS. Two days before imaging, cells were passaged and plated on 18-mm glass coverslips. For all experiments, solutions of dyes (from 5 mM stocks in DMSO) were made in DBPS with calcium chloride and magnesium chloride (Sigma). H2O2 was added by bath application to the medium from a 100 mM aqueous stock. For paraquat treatment, HeLa cells were cultured as described above. One day prior to imaging, 1 mM paraquat was added to cells from a 0.5 M stock solution in water. An equal amount of water was added to control cells at the same time. Cells were then incubated at 37° C., 5% CO2. After 24 hours, the media was exchanged for DPBS with 5 μM dye and incubated for 1 hour.
Confocal fluorescence imaging studies were performed with a Zeiss LSM510 NLO Axiovert 200 laser scanning microscope and a 63× Achroplan IR water-immersion objective lens. Excitation of PY-loaded cells at 510 nm was carried out with an Ar laser and emission was collected using a META detector between 527-580 nm. MitoTracker Deep Red was excited with a 633-nm line and emission was collected between 666-698 nm. LysoTracker Red was excited with a 543-nm line and emission was collected between 580-644 nm. Excitation of Hoechst 33342 was carried out using a MaiTai two-photon laser at 780-nm pulses (mode-locked Ti:sapphire laser, Tsunami Spectra Physics) and emission was collected between 452-537 nm. Image analysis was performed in Adobe Photoshop.
MitoPY1 was tested for its ability to both target the mitochondria and respond to H2O2 in living biological systems. […] Again, co-staining with MitoTracker confirms that the dye is retained in the mitochondria and detects localized rises in H2O2 concentrations.

[3] = Turn-on fluorescence responses to a panel of biologically relevant ROS; details: 20 mM HEPES, pH 7, 25° C.
Protocol: Bars represent relative responses at 0, 5, 15, 30, 45, and 60 min after addition of each ROS. Data shown are for 10 mM O2- (with 10 μM catalase), 200 μM NO, and 100 μM for all other ROS. Data were acquired at 25° C. in 20 mM HEPES, pH 7, with excitation at λ=510 nm and emission collected between 518 and 750 nm.
(§1) MitoPY1 features two major visible region absorptions (λabs=489 nm, ε=14,300 M^−1 cm^−1; 510 nm, ε=14,200 M^−1 cm^−1) and a weak emission (λ=540 nm, Φ=0.019, FIG. S1) in 20 mM HEPES, pH 7. […] Kinetics measurements of the H2O2-mediated boronate deprotection were performed under pseudo-first-order conditions (5 μM dye, 10 mM H2O2), giving an observed rate constant of k=2.0(1)×10^−3 s^−1.

[4] = Kinetics of H2O2-mediated boronate deprotection; details: pseudo-first-order conditions, 5 μM dye, 10 mM H2O2
Protocol: as §1

[5] = Absorption and emission properties, fluorescence quantum yield; assay type: physicochemical; details: 20 mM HEPES, pH 7
Protocol: (§2) Millipore water was used to prepare all aqueous solutions. All spectroscopic measurements were performed in 20 mM HEPES buffer, pH 7. Absorption spectra were recorded using a Varian Cary 50 spectrophotometer (Walnut Creek, Calif.). Fluorescence spectra were recorded using a Photon Technology International Quanta Master 4 L-format scanning spectrofluorometer (Lawrenceville, N.J.) equipped with an LPS-220B 75-W xenon lamp and power supply, A-1010B lamp housing with integrated igniter, switchable 814 photon-counting/analog photomultiplier detection unit, and MD5020 motor driver. Samples for absorption and fluorescence measurements were contained in 1-cm×1-cm quartz cuvettes (1.4- or 3.5-mL volume, Starna, Atascadero, Calif.).
as §2, with “recorded on” for “recorded using”, “Creek, Calif.) and fluorescence” for “Creek, Calif.). Fluorescence”, “and emission” for “and fluorescence”, “cuvettes (1.5-mL” for “cuvettes (1.4- or 3.5-mL”, “Calif.). Fluorescence quantum yields were determined by reference to fluorescein in 0.1M NaOH (Φ=0.95).” for “Calif.).”

| SMILES | IC50 [1] [µM] | cell viability during imaging [2] | fluorescence of probe-loaded cells without H2O2 ([2]; 5 μM probe, 1 h at 37° C.) | subcellular localization (co-staining with MitoTracker Deep Red, LysoTracker Red) ([2]; 5 μM probe, 50 nM MitoTracker Deep Red, 500 nM LysoTracker Red) | fluorescence after addition of H2O2 compared to control cells ([2]; 100 μM H2O2) | detection of endogenous mitochondrial H2O2 in paraquat-treated cells ([2]; 1 mM paraquat 24 h, then 5 μM probe, compared to control cells) | selectivity of turn-on response for H2O2 over other ROS [3] | observed rate constant k of H2O2-mediated boronate deprotection [4] | fluorescence quantum yield Φ ([5]; by reference to fluorescein) | extinction coefficient ε at 489 nm ([5]; λabs 489 nm) | extinction coefficient ε at 510 nm ([5]; λabs 510 nm) |
| --- | --- | --- | --- | --- | --- | --- | --- | --- | --- | --- | --- |
| C[n+]1ccc(-c2cc[n+](C)cc2)cc1 [paraquat] | 1020 | – | – | – | – | – | – | – | – | – | – |
| CC1(C)OB(c2ccc3c(c2)Oc2cc(N4CCN(CCCC[P+](c5ccccc5)(c5ccccc5)c5ccccc5)CC4)ccc2C32OC(=O)c3ccccc32)OC1(C)C.[I-] (centres unmarked) [MitoPY1] | – | cells are viable throughout the imaging experiments | faint but measurable levels of fluorescence | localized to the mitochondria | marked localized increase in fluorescence | clear increases in mitochondrial-localized H2O2 levels | selective for H2O2 over ROS like superoxide, nitric oxide, and hydroxyl radical | 2.0(1)×10^−3 s^−1 | 0.019 | 14,300 M^−1 cm^−1 | 14,200 M^−1 cm^−1 |
